Source: PubChem BioAssay (NCI)
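48-hour exposure; five concentrations; linearly interpolated endpoints. At the GI50, growth is halved. TGI: concentration producing complete growth inhibition.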 Where a SMILES comes first, the peptide text is derived from it. The star is where a group is joined. Boc = CC(C)(C)OC(=O)*

Columns and labels:
Test in all cases: NCI-60 cell line screen, 48 h
SF-539 CNS = tested on: SF-539 CNS
OVCAR-8 ovarian = tested on: OVCAR-8 ovarian
UACC-62 melanoma = tested on: UACC-62 melanoma
UACC-257 melanoma = tested on: UACC-257 melanoma
SK-MEL-28 melanoma = tested on: SK-MEL-28 melanoma
SK-OV-3 ovarian = tested on: SK-OV-3 ovarian
MCF7 breast = tested on: MCF7 breast
MDA-MB-435 = tested on: MDA-MB-435
T-47D breast = tested on: T-47D breast

SMILES | TGI (SF-539 CNS) [µM] | TGI (OVCAR-8 ovarian) [µM] | TGI (UACC-62 melanoma) [µM] | TGI (UACC-257 melanoma) [µM] | TGI (SK-MEL-28 melanoma) [µM] | TGI (SK-OV-3 ovarian) [µM] | TGI (MCF7 breast) [µM] | TGI (MDA-MB-435) [µM] | TGI (T-47D breast) [µM] | GI50 (UACC-62 melanoma) [µM]
CC1(C)N=C(C2CCCN2C(=O)OCc2ccccc2)OC1=O (configuration not stated) | > 100 | > 100 | > 100 | > 100 | > 100 | > 100 | > 100 | > 100 |  | 
COC(=O)[C@H](Cc1ccc(O)cc1)NC(=O)[C@H](Cc1ccc(O)cc1)NC(=O)OC(C)(C)C (Boc-Tyr-Tyr-OMe) | > 100 | > 100 | > 100 | > 100 |  | > 100 | > 100 |  |  | 
Cc1cnc2[nH]c(-c3ccc4ccccc4c3)cc(=O)c2c1 | 9.07 | > 100 | > 100 |  | > 100 | > 100 | 8.68 |  | > 100 | 
Cc1n(Cc2ccccc2)nc2sc(N)n[n+]12 | > 100 | > 100 | > 100 | > 100 | > 100 | > 100 | > 100 | > 100 | > 100 | 
Cn1cc(-c2csc(-c3cn(C)c4ccccc34)n2)c2ccccc21 |  | > 100 | > 100 | > 100 | > 100 |  | > 100 | > 100 | 89.6 | 
COc1ccc2nc3cc(Cl)ccc3c(SCC(=O)Nc3ccccc3-c3ccccc3NC(=O)CSc3c4ccc(Cl)cc4nc4ccc(OC)cc34)c2c1 | > 100 | > 100 | > 100 | > 100 | > 100 | > 100 |  |  |  | 
O=CN1CCN(C(=O)c2ccc(Cl)c(Cl)c2)C1=S | 37 | 29.4 | 30.4 | 31.7 | 38.3 | 32.9 | 25 | 31.8 | 58 | 
O=C(N/N=C(/COc1ccccc1)N=Cc1cccnc1)c1ccncc1 | > 100 | > 100 | > 100 | > 100 | > 100 | > 100 | > 100 | > 100 | > 100 | 
CCOc1ccc(N/C(=C(/C(Cl)=C(/Cl)NC(C)(C)C)[N+](=O)[O-])n2nnc3ccccc32)cc1 | 57.6 | 32.3 | 65.3 | > 100 | 38.8 | > 100 | 65.1 | 33.6 | 32 | 
CC(C)N(C(C)C)S(=O)(=O)C[C@]12CC[C@H](CC13OCC(CS(=O)(=O)c1ccccc1)O3)C2(C)C (some centres not stated) | > 100 | > 100 | > 100 | > 80.3 | > 100 | > 100 | > 100 | > 100 | > 100 | 
CNc1nc(C(N)=O)c(N)s1 | > 100 | > 100 | > 100 | > 100 | > 100 | > 100 |  | > 100 | > 100 | 
Fc1ccc(C(OCCN2CC3CCC(C2)N3CCCc2ccccc2)c2ccc(F)cc2)cc1 | 3.63 | 5.39 | 21.3 | 11.9 | 22.2 | 23.3 | 10.7 | 4.68 | 6.28 | 
Cc1cccc(N/C(Sc2ccccc2)=C(/C(Cl)=C(Cl)Cl)[N+](=O)[O-])c1 | 31.3 | 29.6 | 54.6 | 47.2 | 32.4 | 47.6 | 91.3 | 34 | 42.7 | 
Cn1c(N)nc(-c2ccc(Cl)cc2)c1SSc1c(-c2ccc(Cl)cc2)nc(N)n1C | 3.33 | 5.81 | 5.03 | 3.52 | 3.76 | 27.4 |  | 3.54 | 5.06 | 
CC(Oc1ccc(OCC2CCCCC2)cc1)C(=O)NCc1ccco1 (configuration not stated) | 88.1 | > 100 | > 100 | 70.4 | > 100 | > 100 |  |  |  | 
NC(=O)NC12CC3CC(CC(F)(C3)C1)C2 | > 100 | > 100 | > 100 | > 100 | > 100 | > 100 |  |  |  | 
CC(=O)CC1=C(OC(C)C)C2(OCCO2)C1O (configuration not stated) | > 100 | > 100 | > 100 | > 100 | > 100 | > 100 | > 100 | > 100 | > 100 | 
CC(=O)O[C@H]1CCC2[C@@H]3CCC4c5nonc5CC[C@]4(C)C3CC[C@@]21C (some centres not stated) | > 10 | > 10 | > 100 | > 10 | > 10 | > 10 |  |  |  | > 100
CCOC(=O)C(Cl)(NC(=O)OCc1ccccc1)C(F)(F)F (configuration not stated) | > 100 | > 100 |  | > 100 | > 100 | > 100 | > 100 | > 100 | > 100 | 
CC(C)Oc1c(-c2ccc(F)cc2)c(O)c2c3c1oc(=O)n3C=CC2C (configuration not stated) | 26.4 | 30.6 | 29.4 | 26.3 | 30.9 | > 100 | 24.3 | 52.9 |  | 
